Test system: Chung model of neuropathic pain
Test: Antiallodynic activity in the Chung model (spinal nerve ligation), manually applied von Frey probes
Type: in vivo, Sprague-Dawley rats
Details: for % Maximum Possible Effect: 30 min after oral dosing (time of peak effect), L5 spinal nerve ligated rats, paw withdrawal threshold
Source text: The procedure used to test the antiallodynic activity of an enantiomer of Formula (I) substantially free of other enantiomers was the procedure for the measurement of allodynia found in the Chung Model (Kim S. H. and Chung J. M., An Experimental Model for Peripheral Neuropathy Produced by Segmental Spinal Nerve Ligation in the Rat, Pain, 1992, 50, 355-363).
Evaluation of Antiallodynic Activity (Manually Applied Von Frey Probes) Animals
Pathogen-free, male albino Sprague-Dawley rats, 200 g, were purchased from Harlan Industries (Indianapolis, Ind.) and maintained on a 12-h light/dark cycle (lights on at 06:00 h) in a climate-controlled room with food and water available ad libitum up to the time of the testing and food withdrawn 18 hr prior to testing.
Surgical Procedure and Measurement of Allodynia
The rats were anesthetized with isoflurane inhalant anesthesia. The left lumbar spinal nerve at the level of L5 was tightly ligated (4-0 silk suture) distal to the dorsal root ganglion and prior to entrance into the sciatic nerve, as described by Kim and Chung. The incisions were closed and the rats were allowed to recover under conditions described above. This procedure results in mechanical allodynia in the left hind paw. The sham operation, when performed, consisted of a similar surgical procedure lacking only the final ligation of the spinal nerve. Mechanical (tactile) allodynia was assessed by recording the pressure at which the affected paw (ipsilateral to the site of nerve injury) was withdrawn from graded stimuli (von Frey filaments ranging from 4.0 to 148.1 mN) applied by hand perpendicularly to the plantar surface of the paw (between the footpads) through wire-mesh observation cages. A paw withdrawal threshold (PWT) was determined by sequentially increasing and decreasing the stimulus strength and analyzing withdrawal data using a Dixon non-parametric test, as described by Chaplan et al (Chaplan S. R., Bach F. W., Pogrel J. W., Chung J. M. and Yaksh T. L., Quantitative Assessment of Tactile Allodynia in the Rat Paw, J Neurosci Meth, 1994, 53, 55-63). […]

SMILES: NC(=O)OC[C@H](O)c1ccccc1Cl [Formula (Ib)]
- % Maximum Possible Effect (30 mg/kg po): 11%
- % Maximum Possible Effect (100 mg/kg po): 28%
- time of peak antiallodynic effect (after oral dosing, 30 and 100 mg/kg): 30 min

— patent US20060293383A1, “Carbamate compounds for use in preventing or treating neuropathic pain and cluster and migraine headache-associated pain” (priority 2001, published 2006)
